# What was measured:
# [1] = Metabolic stability in microsomal fraction, mouse; assay type: in vitro ADME; conditions: mouse; Table 1
# hP2X3R = biological target: T1, hP2X3R (Homo sapiens, UniProt P56373); assay: Calcium influx (Fluo-4) evoked by α,β-meATP in HEK293 cells stably expressing hP2X3R; assay type: cell-based; conditions: antagonistic activity; HEK293 cells expressing hP2X3R; agonist at EC70
# T1 construct: expressed in transfected cells
# T1 sequence (P56373 1-397): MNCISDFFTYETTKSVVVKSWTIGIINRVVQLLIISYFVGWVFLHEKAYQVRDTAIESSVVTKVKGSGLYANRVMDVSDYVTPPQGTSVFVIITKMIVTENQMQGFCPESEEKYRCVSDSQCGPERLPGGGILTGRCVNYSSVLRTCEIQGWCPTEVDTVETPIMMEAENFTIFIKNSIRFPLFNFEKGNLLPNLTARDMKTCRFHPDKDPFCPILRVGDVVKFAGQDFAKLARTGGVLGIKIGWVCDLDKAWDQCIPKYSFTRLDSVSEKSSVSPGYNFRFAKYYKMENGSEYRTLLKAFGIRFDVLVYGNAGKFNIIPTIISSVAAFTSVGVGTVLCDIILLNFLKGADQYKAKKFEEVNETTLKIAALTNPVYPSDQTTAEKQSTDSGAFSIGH
# Procedure: For the evaluation of P2XR activities, a cell-based assay system was employed to measure the level of fluorescence emission, based on Fluo-4 dye, during Ca^2+ influx evoked by αβmeATP in HEK293 cells stably expressing hP2X2/3R and hP2X3R. The library containing 8364 representative compounds for the screening of antagonistic activity was provided by the Korea Chemical Bank. The antagonistic activities were evaluated in the presence of P2X3R agonist of the concentration for EC70 value (200–250 nM for hP2X3R and 1–4 μM for hP2X2/3R highly expressed cell lines), and AF353 was used as the positive control antagonist for comparison. For the first round of screening, a single concentration (25 μM) of each library compound was tested to identify initial hit compounds, which were subsequently validated using both concentrations of 25 and 10 μM. Using a cut-off threshold of higher than 50% antagonistic activity and after confirming dose-dependency, 12 main hit compounds were selected.
# 3.4. Cell-Based Assay: Measurement of Calcium Influx by Fluorescence-Based Fluo-4 Dye Uptake in HEK293 Cells Expressing hP2X2/3 and hP2X3 Receptors
# Human P2X3-expressing HEK293 cells were grown in DMEM supplemented with 10% fetal bovine serum and 1% antibiotic–antimycotic as a monolayer culture at 37 °C in a humidified atmosphere of 5% CO2. The 96-well black plates used in the experiments were prepared by coating them with 1× poly-D-lysine (A3890401, Thermo-Fisher Scientific Korea, Seoul, South Korea). An aliquot of 40 μL 1× poly-D-lysine was used to treat each of the wells in a flat orientation. After leaving the plates for at least 4 h to absorb the poly-D-lysine, the plates were allowed to dry for at least 6 h. The DMEM used in the culture of HEK293 cells was removed from the dish, followed by application of 3 mL 1× PBS for washing. Removal of 1× PBS was followed by application of 1 mL trypsin/EDTA, and the cells were collected by centrifugation at 1200 rpm for 2 min. The supernatant was removed, and 1 mL fresh DMEM added. The cells were resuspended in media and plates prepared with 4.8 × 10^4 cells/well in 56 μL/well. After 18 h of cell culture in the 96-well black plate, 56 μL of Fluo-4 dye (Fluo-4 Direct^TM Calcium Assay Kit, F10471, Invitrogen, Thermo-Fisher Scientific Korea, Seoul, South Korea) was added to each well, prepared according to the manufacturer’s protocol, and incubated for 50 min~1 h under culturing conditions. Then, 12.4 μL of the appropriate compound solution was added to each well, and the positive control was AF353 (A1612, Sigma Aldrich Korea, Seoul, South Korea) and the negative control was 5% DMSO. Plates were incubated at room temperature and sealed to avoid interference from light for 50 min~1 h. Flexstation 3 and its software provided by Molecular Devices was used for the measurement of fluorescence in real time of treatments using prepared α,β-meATP (M6517, Sigma Aldrich) solution to evoke calcium influx and increased cell membrane potential.
# For the analysis of antagonistic activities, all data were calculated by Origin Pro 9.1 software provided by Originlab and the fitting of graphs was proceeded by the growth/sigmoidal and hill1 process within no weights for data selections. For the analysis of the behavioral assessments of pain models, all data are expressed as mean ± SEM. The dose–response data are presented as percentages of the maximum possible effect. Statistical significance was analyzed by independent t-test. The criterion for statistical significance was p < 0.05. The statistical analysis was performed using SPSS 25.0 software (IBM Corp., Armonk, NY, USA).
# [2] = Metabolic stability in microsomal fraction, human; assay type: in vitro ADME; conditions: Table 1
# [3] = Metabolic stability in microsomal fraction, rat; assay type: in vitro ADME; conditions: Table 1
smiles,measurement,setting,value
Cc1nc2c([nH]1)C(=O)C(Cl)=C(Nc1ccc(F)c(F)c1)C2=O [KCB-77033],Metabolic Stability Mouse (%),[1],5.2 ± 1.6%
same,IC50,hP2X3R,1030 ± 73 nM
same,Metabolic Stability Human (%),[2],9.0 ± 1.5%
same,Metabolic Stability Rat (%),[3],3.4 ± 0.1%
